Test results taken from patent US20110230476A1, “PI3 KINASE INHIBITORS AND USES THEREOF” (AVILA THERAPEUTICS, INC., priority 2009, published 2011).

Key:
PI3Kα (p110α/p85α) = molecular target: T1, PI3Kα (p110α/p85α) (Homo sapiens, UniProt P42336); assay: HTRF assay, potency against active PI3Kα; type: biochemical; conditions: HTRF; [ATP]=50 μM, [di-C8-PIP2]=10 μM; 30 min pre-incubation; read-out: PI3Kα Inhibition
T1 construct: purchased BPS Bioscience (San Diego, Calif.) or Millipore (Billerica, Mass.)
Procedure, shortened: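 Active p110/p85α lipid kinase reactions were started with ATP and run 30-60 minutes at 25 °C, then stopped and developed with HTRF detection mix. HTRF ratio converted to % inhibition against ±enzyme controls; IC50 from log[inhibitor] vs response, variable slope.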

PI3K = PI3K HCT116 cellular assay (Western blot); type: cell-based; conditions: Homo sapiens, HCT-116, HCT116 colon cancer cells, 1 hour incubation, read-out: PI3K Inhibition
Experimental: PI3K HCT116 Cellular Assay
Selected compounds were assayed in HCT116 colon cancer cells. […] Cells were then washed with PBS, lysed and the protein lysates were then recovered and analyzed by Western blot.

PI3Kγ (p120γ) = molecular target: T2, PI3Kγ (p120γ) (Homo sapiens, UniProt P48736); assay: HTRF assay, potency against active PI3Kγ; type: biochemical; conditions: [ATP]=50 μM, [di-C8-PIP2]=10 μM, 30 min pre-incubation, read-out: PI3Kγ Inhibition
T2 construct: purchased BPS Bioscience (San Diego, Calif.) or Millipore (Billerica, Mass.)
Excerpt: Homogeneous Time Resolved Fluorescence (HTRF) Assay Protocol for Potency Assessment Against the Active Forms of PI3Kα, PI3Kβ, and PI3Kγ
The protocol below describes an end-point, competition-binding HTRF assay used to measure inherent potency of test compounds against active PI3Kα (p110α/p85α), PI3Kβ (p110β/p85α), and PI3Kγ (p120γ) enzymes. The mechanics of the assay platform are best described by the vendor (Millipore, Billerica, Mass.) on their website at the following URL: www.millipore.com/coa/tech1/74jt4z.
Briefly, Stop solution (Stop A, #33-007 and Stop B, #33-009; 3:1 ratio) and Detection Mix (from DMC, #33-015 with DMA, #33-011 and DMB, #33-013; 18:1:1 ratio) were prepared as recommended by the manufacturer about 2 hrs prior to use. Additionally, 1× reaction buffer (from 4× buffer stock# 33-003), 1.4× stocks of PI3Kα, PI3Kβ, and PI3Kγ enzymes from BPS Bioscience (San Diego, Calif.) or Millipore (Billerica, Mass.) with di-C8-PIP2 lipid substrate (#33-005), and a 4×ATP solution (#A7699 Sigma/Aldrich; St. Louis, Mo.) were prepared in 1× reaction buffer. 15 μL of PI3K enzymes and lipid substrate mix were pre-incubated in a Corning (#3573) 384-well, black, non-treated microtiter plate (Corning, N.Y.) for 30 min at 25° C. with a 0.5 μL volume of 50% DMSO and serially diluted compounds prepared in 50% DMSO. Lipid kinase reactions were started with the addition of 5 μL of ATP solution, mixed for 15 sec on a rotary plate shaker and incubated for 30-60 minutes at 25° C. Next, reactions were stopped with a 5 μL addition of Stop solution immediately followed by a 5 μL volume of Detection Mix. Stopped reactions were equilibrated for 1 and 18 hrs at room temperature and read in a Synergy^4 plate reader from BioTek (Winooski, Vt.) at λex330-80/λem620-35 and λem665-7.5. At the conclusion of each assay, the HTRF ratio from fluorescence emission values for each well was calculated and % Inhibition determined from averaged controls wells (+/−PI3K enzyme). % Inhibition values for each compound were then plotted against inhibitor concentration to estimate IC50 from log [Inhibitor] vs Response, Variable Slope model in GraphPad Prism from GraphPad Software (San Diego, Calif.).
[Reagent] used in optimized protocol: • [p110α/p85α]=0.5-1.5 nM, [ATP]=50 μM, [di-C8—PIP2]=10 μM • [p110β/p85α]=0.75 nM, [ATP]=50 μM, [di-C8—PIP2]=10 μM • [p120γ]=2-2.5 nM, [ATP]=50 μM, [di-C8—PIP2]=10 μM • (ATP KMapp for both enzymes was estimated to be 40-70 μM)

Phospho-Akt(Ser473) = assay: Dose response in SKOV3 cells as determined by Western blot; type: cell-based; conditions: Homo sapiens, SK-OV-3, 1 hr, Phospho-Akt normalized to total Akt, read-out: Immunoblot
Experimental: Dose Response in SKOV3 Cells as Determined by Western Blot
SKOV3 cells were plated in SKOV3 Growth Media (DMEM supplemented with 10% FBS and pen/strep) at a density of 4×10^5 cells per well of 12 well plates. Twenty four hours later the media was removed and replaced with 1 ml media containing test compound and 0.1% DMSO and cells were returned to the incubator for 1 hr. At the end of the hour, the media was removed and the cells were washed with PBS, then lysed and scraped into 30 ul of Cell Extraction Buffer (Biosource, Camarillo, Calif.) plus Complete Protease Inhibitor and PhosStop Phosphatase Inhibitor (Roche, Indianapolis, Ind.).
Cell debris was spun down at 13,000×g for 1 minute and the supernatant was taken as the cell lysate. Protein concentration of the lysate was determined by BCA Assay (Pierce Biotechnology, Rockford, Ill.) and 50 ug of protein was loaded per well onto a NuPAGE Novex 4-12% Bis-Tris gel (Invitrogen, Carlsbad, Calif.) then transferred to Immobilon PVDF-FL (Millipore, Billerica, Mass.).
The blot was blocked in Odyssey Blocking Buffer (Li-Cor Biosciences, Lincoln, Nebr.) for 1 hr then incubated overnight at 4° C. with mouse anti-Akt (#2920) and rabbit anti-Phospho-Akt(Ser473) (#9271)(Cell Signaling Technology, Boston, Mass.) antibodies, both diluted 1:1000 in PBS/Odyssey Buffer (1:1)+0.1% Tween-20. The blots were washed 3 times 5 minutes in PBS+0.2% Tween-20 then incubated for 1 hr at room temperature with fluorescently labeled secondary antibodies (Li-Cor) diluted 1:10000 in PBS/Odyssey Buffer (1:1)+0.1% Tween-20.
The blots were washed 2 times for 5 minutes in PBS+0.2% Tween-20, once in distilled water, then scanned on an Odyssey machine (Li-Cor). Band intensity was determined using the Odyssey software and Phopho-Akt signal was normalized to total Akt within samples, then expressed as a percentage of the untreated Phospho-Akt signal.

T1 sequence (P42336 whole entry): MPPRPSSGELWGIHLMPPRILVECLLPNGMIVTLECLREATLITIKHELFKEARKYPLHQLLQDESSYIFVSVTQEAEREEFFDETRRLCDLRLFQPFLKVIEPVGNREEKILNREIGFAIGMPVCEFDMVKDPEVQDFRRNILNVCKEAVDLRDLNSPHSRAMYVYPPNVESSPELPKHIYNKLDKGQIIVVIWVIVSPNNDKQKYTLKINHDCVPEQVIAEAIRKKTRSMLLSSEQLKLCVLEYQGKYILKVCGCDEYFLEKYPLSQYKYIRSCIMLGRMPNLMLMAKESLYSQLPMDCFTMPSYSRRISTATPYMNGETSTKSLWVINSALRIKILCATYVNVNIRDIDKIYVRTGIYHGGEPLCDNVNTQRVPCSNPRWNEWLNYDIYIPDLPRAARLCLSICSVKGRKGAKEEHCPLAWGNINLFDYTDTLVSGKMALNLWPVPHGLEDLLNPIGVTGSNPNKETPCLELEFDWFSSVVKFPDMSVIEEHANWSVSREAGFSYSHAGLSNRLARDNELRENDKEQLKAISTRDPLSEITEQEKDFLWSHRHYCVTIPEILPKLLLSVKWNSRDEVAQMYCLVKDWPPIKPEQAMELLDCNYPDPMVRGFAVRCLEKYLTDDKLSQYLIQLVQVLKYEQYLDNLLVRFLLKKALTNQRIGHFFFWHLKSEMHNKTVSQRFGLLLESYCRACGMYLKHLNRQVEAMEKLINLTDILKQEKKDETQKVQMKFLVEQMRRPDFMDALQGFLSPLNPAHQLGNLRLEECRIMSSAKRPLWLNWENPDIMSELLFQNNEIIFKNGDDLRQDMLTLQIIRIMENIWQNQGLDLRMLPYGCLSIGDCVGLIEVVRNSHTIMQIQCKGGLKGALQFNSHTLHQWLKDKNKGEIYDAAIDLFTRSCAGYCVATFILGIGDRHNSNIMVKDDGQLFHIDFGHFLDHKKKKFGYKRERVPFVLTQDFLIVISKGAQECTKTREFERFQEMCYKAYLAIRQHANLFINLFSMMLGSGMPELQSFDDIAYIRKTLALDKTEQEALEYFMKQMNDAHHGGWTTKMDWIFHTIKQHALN
T1 sequence (P27986 whole entry partner): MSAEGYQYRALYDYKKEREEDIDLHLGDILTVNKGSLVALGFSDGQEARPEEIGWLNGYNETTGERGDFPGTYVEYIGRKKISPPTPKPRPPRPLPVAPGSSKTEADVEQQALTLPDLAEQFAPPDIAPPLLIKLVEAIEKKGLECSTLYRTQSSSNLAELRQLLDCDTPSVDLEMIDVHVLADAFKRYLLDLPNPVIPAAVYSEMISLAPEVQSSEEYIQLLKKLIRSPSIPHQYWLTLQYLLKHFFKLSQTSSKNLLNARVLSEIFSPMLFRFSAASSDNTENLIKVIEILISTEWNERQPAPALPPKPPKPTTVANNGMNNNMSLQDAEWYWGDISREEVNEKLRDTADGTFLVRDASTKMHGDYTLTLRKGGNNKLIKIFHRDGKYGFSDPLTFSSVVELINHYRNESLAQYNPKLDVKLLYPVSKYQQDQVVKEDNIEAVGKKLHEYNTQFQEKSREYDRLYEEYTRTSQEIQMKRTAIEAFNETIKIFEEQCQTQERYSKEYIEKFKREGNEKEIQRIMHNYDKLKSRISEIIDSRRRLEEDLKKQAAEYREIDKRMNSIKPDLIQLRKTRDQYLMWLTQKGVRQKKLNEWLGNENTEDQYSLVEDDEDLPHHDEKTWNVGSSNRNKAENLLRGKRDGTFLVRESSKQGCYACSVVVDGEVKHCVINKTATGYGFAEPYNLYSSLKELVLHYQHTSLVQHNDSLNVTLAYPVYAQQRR
T2 sequence (P48736 whole entry): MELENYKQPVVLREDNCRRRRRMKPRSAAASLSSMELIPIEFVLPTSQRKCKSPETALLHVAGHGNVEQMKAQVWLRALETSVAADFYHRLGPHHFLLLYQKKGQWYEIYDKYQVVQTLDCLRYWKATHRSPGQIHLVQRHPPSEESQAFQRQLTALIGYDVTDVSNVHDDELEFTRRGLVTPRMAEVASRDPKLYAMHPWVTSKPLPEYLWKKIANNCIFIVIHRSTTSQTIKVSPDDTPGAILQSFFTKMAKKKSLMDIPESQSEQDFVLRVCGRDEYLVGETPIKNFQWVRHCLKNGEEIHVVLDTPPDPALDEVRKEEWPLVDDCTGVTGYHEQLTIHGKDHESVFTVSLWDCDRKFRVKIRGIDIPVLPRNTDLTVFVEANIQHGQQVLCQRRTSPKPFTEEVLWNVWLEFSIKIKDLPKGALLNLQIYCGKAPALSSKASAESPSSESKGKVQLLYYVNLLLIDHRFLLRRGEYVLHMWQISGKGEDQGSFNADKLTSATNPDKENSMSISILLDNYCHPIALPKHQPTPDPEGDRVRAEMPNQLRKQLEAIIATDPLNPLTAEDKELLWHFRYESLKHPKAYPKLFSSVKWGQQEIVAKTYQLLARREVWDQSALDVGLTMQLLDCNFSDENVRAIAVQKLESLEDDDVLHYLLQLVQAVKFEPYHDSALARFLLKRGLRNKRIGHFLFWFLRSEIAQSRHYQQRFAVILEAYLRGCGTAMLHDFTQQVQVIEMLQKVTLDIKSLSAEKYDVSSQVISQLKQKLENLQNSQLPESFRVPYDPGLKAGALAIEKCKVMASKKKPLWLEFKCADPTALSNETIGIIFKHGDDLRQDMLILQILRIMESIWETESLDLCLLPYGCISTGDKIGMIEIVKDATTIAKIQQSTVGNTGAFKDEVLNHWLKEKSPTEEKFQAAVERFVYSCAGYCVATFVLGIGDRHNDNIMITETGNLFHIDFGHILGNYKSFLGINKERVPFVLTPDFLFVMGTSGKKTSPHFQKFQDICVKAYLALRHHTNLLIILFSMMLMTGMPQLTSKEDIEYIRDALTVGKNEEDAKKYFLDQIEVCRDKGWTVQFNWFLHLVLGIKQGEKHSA

Row | Structure (SMILES) | IC50 (PI3Kα (p110α/p85α)) | EC50 (PI3K) | IC50 (PI3Kγ (p120γ)) | EC50 (Phospho-Akt(Ser473))
1 | C=CC(=O)Nc1ccc(CCNC(=O)c2cc3nc(-c4cnc(N)nc4)nc(N4CCOCC4)c3s2)cc1 [II-a-154, N-(4-acrylamidophenethyl)-2-(2-aminopyrimidin-5-yl)-4-morpholinothieno[3,2-d]pyrimidine-6-carboxamide] | 10 to 100 nM | – | – | ≤ 10 nM
2 | C=CC(=O)Nc1ccc(C(=O)N2CC=C(c3cc4nc(-c5cnc(N)nc5)nc(N5CCOCC5)c4s3)CC2)cc1 [II-a-156, N-(4-(4-(2-(2-aminopyrimidin-5-yl)-4-morpholinothieno[3,2-d]pyrimidin-6-yl)-1,2,3,6-tetrahydropyridine-1-carbonyl)phenyl)acrylamide] | 10 to 100 nM | – | – | ≤ 10 nM
3 | C=CC(=O)Nc1ccc(OCc2cc3nc(-c4cnc(N)nc4)nc(N4CCOCC4)c3s2)cc1 [II-a-172, N-(4-((2-(2-aminopyrimidin-5-yl)-4-morpholinothieno[3,2-d]pyrimidin-6-yl)methoxy)phenyl)acrylamide] | 100 to 1000 nM | – | – | ≤ 10 nM
4 | C=CC(=O)Nc1ccc(CN(C)Cc2cc3nc(-c4cnc(N)nc4)nc(N4CCOCC4)c3s2)cc1 [II-a-176, N-(4-((((2-(2-aminopyrimidin-5-yl)-4-morpholinothieno[3,2-d]pyrimidin-6-yl)methyl)(methyl)amino)methyl)phenyl)acrylamide] | 10 to 100 nM | – | – | 10 to 100 nM
5 | CC(C)=CC(=O)CCCC(=O)N1CCC(c2cc3nc(-c4cnc(N)nc4)cc(N4CCOCC4)c3s2)CC1 [II-g-6, 1-(4-(5-(2-aminopyrimidin-5-yl)-7-morpholinothieno[3,2-b]pyridin-2-yl)piperidin-1-yl)-7-methyloct-6-ene-1,5-dione] | 100 to 1000 nM | – | – | 100 to 1000 nM
6 | C=C(C)C(=O)CCCC(=O)N1CCN(c2ccnc3ccc(/C=C4\SC(Nc5c(Cl)cccc5Cl)=NC4=O)cc23)CC1 [V-3, (Z)-1-(4-(6-((2-(2,6-dichlorophenylamino)-4-oxothiazol-5(4H)-ylidene)methyl)quinolin-4-yl)piperazin-1-yl)-6-methylhept-6-ene-1,5-dione] | 100 to 1000 nM | 500 to 2000 nM | > 1000 nM | –
7 | C=CC(=O)Nc1ccc(CCNC(=O)c2cc(-c3cnc(N)nc3)nc(N3CCOCC3)c2)cc1 [XII-2, N-(4-acrylamidophenethyl)-2-(2-aminopyrimidin-5-yl)-6-morpholinoisonicotinamide] | 10 to 100 nM | – | – | ≥ 1000 nM

More lines, main results first:

Row | IC50 (PI3Kα (p110α/p85α)) | EC50 (PI3K) | IC50 (PI3Kγ (p120γ)) | Structure (SMILES) | EC50 (Phospho-Akt(Ser473))
8 | 10 to 100 nM | 20 to 100 nM | 100 to 1000 nM | C/C=C/C(=O)CCC(=O)NCCS(=O)(=O)N1CCN(Cc2cc3nc(-c4cccc(O)c4)nc(N4CCOCC4)c3s2)CC1 [II-a-26, (E)-N-(2-(4-((2-(3-hydroxyphenyl)-4-morpholinothieno[3,2-d]pyrimidin-6-yl)methyl)piperazin-1-ylsulfonyl)ethyl)-4-oxohept-5-enamide] | –
9 | 100 to 1000 nM | 20 to 100 nM | 100 to 1000 nM | CC(C)=CC(=O)CCC(=O)NCCS(=O)(=O)N1CCN(Cc2cc3nc(-c4cccc(O)c4)nc(N4CCOCC4)c3s2)CC1 [II-a-28, N-(2-(4-((2-(3-hydroxyphenyl)-4-morpholinothieno[3,2-d]pyrimidin-6-yl)methyl)piperazin-1-ylsulfonyl)ethyl)-6-methyl-4-oxohept-5-enamide] | –
10 | 10 to 100 nM | 100 to 500 nM | 100 to 1000 nM | C=CS(=O)(=O)N(C)Cc1cc2nc(-c3cccc(O)c3)nc(N3CCOCC3)c2s1 [II-a-29, N-((2-(3-hydroxyphenyl)-4-morpholinothieno[3,2-d]pyrimidin-6-yl)methyl)-N-methylethenesulfonamide] | –
11 | 10 to 100 nM | 100 to 500 nM | > 1000 nM | C=CC(=O)N1CCN(CC#Cc2cc3nc(-c4cccc(O)c4)nc(N4CCOCC4)c3s2)CC1 [II-a-47, 1-(4-(3-(2-(3-hydroxyphenyl)-4-morpholinothieno[3,2-d]pyrimidin-6-yl)prop-2-ynyl)piperazin-1-yl)prop-2-en-1-one] | –
12 | < 10 nM | 20 to 100 nM | > 1000 nM | C/C=C/C(=O)CCC(=O)N1CCN(CC#Cc2cc3nc(-c4cccc(O)c4)nc(N4CCOCC4)c3s2)CC1 [II-a-48, (E)-1-(4-(3-(2-(3-hydroxyphenyl)-4-morpholinothieno[3,2-d]pyrimidin-6-yl)prop-2-ynyl)piperazin-1-yl) hept-5-ene-1,4-dione] | –
13 | < 10 nM | – | – | C=CC(=O)NCc1cccc(-c2cc3nc(-c4cccc(O)c4)nc(N4CCOCC4)c3s2)c1 [II-a-64, N-(3-(2-(3-hydroxyphenyl)-4-morpholinothieno[3,2-d]pyrimidin-6-yl)benzyl)acrylamide] | 10 to 100 nM
14 | < 10 nM | – | – | C/C=C/C(=O)CCC(=O)N1CCC(C#Cc2cc3nc(-c4cccc(O)c4)nc(N4CCOCC4)c3s2)CC1 [II-a-89, (E)-1-(4-((2-(3-hydroxyphenyl)-4-morpholinothieno[3,2-d]pyrimidin-6-yl)ethynyl)piperidin-1-yl)hept-5-ene-1,4-dione] | 10 to 100 nM
